Laboratory results taken from patent US10160785B2, “Antimicrobial peptides and their use for the treatment of topical infections” (priority 2015, dated 2018).

Assays:
[1] = test system: Enterococcus faecalis Motol; conditions: BHI medium, 37° C., 20 h
Method: (§1) Gram-positive bacteria (Micrococcus luteus, Bacillus subtilis, Staphylococcus aureus, Staphylococcus epidermidis and Enterococcus faecalis), Gram-negative bacteria (Escherichia coli and Pseudomonas aeruginosa) and the yeast (Candida albicans) were grown to exponential phase and then were diluted with fresh medium. BHI medium (Oxoid, Great Britain) was used for Enterococcus faecalis; YPD medium containing yeast extract peptone and glucose was used for Candida albicans and LB medium (Sigma, Czech Republic) was used for the remaining microorganisms. Then the microorganisms were added to the solutions of the tested antimicrobial peptides in LB medium in multi-well plates. The final peptide concentration it the wells was in the range of 0.1 to 100 μmol.l^−1. That was made by twofold serial dilution from the peptide stock solution (1 mmol.l^−1). The plates were incubated at 37° C. for 20 h while being continuously shaken in a Bioscreen C (Oy Growth Curves AB Ltd., Helsinki, Finland). Absorbance was measured at 540 nm every 15 min. Antimicrobial activity (Table 2) was determined as a quantitative minimum inhibitory concentration (MIC) by observing bacterial growth in the presence of different concentrations of tested peptides. In the experiments ca 10^5 CFU of bacteria or candida per well were routinely used.
(§2) Multiresistant clinical isolates of bacteria were obtained from University Hospital in Motol, Prague, Czech Republic and from Liberec Regional Hospital, Czech Republic. Methicillin resistant Staphylococcus aureus (MRSA) 6271 and Pseudomonas aeruginosa 5482 were from the Czech National Collection of Type Cultures, the National Institute of Public Health, Prague, Czech Republic. Other bacteria were from the Czech Collection of Microorganisms, Brno, Czech Republic. Candida albicans came from the Faculty of Medicine, Palacky University, Olomouc, Czech Republic.

[2] = test system: Staphylococcus aureus Liberec; conditions: for Antimicrobial activity MIC S. a. Liberec: Staphylococcus aureus Liberec clinical isolate, 37° C., 20 h
Method: as §1, §2

[3] = test system: Staphylococcus epidermidis Motol; conditions: 37° C., 20 h
Method: as §1, §2

[4] = test system: Methicillin resistant Staphylococcus aureus (MRSA) 6271; conditions: 37° C., 20 h
Method: as §1, §2

[5] = test system: Pseudomonas aeruginosa Liberec; conditions: for Antimicrobial activity MIC P. a. Liberec: Pseudomonas aeruginosa Liberec, 37° C., 20 h
Method: as §1, §2

Micrococcus luteus = test system: Micrococcus luteus
Method: as §1, §2

Bacillus subtilis = conditions: for Antimicrobial activity MIC B. s.: Bacillus subtilis, 37° C., 20 h
Method: as §1, §2

[6] = test system: Staphylococcus aureus Motol; conditions: Staphylococcus aureus Motol clinical isolate; 37° C., 20 h
Method: as §1, §2

[7] = test system: Pseudomonas aeruginosa 5482; conditions: 37° C., 20 h
Method: as §1, §2

Escherichia coli = conditions: 37° C., 20 h
Method: as §1, §2

[8] = test system: Candida albicans (Olomouc); test: microbe, parasite or virus in culture; type: cell-based; conditions: RPMI broth microdilution, 35° C., 48 hours, visual
Method: (§3) All yeasts Candida albicans (Olomouc) and ATCC MYA-2876, Candida glabrata ATCC 2001 and DSY 565, Candida dubliniensis ATCC MYA-646, Candida krusei ATCC 6258 and Candida tropicalis ATCC 750 were sub-cultured from sterile vials onto Sabouraud dextrose agar, which was composed of 40 g dextrose (Penta, Czech Republic), 10 g peptone (OXOID, Great Britain) and 17 g agar (OXOID), dissolved in 1 l of distilled water, and cultivated for 24 hours at 35° C.
(§4) All strains were stored in a way that minimizes the possibility of mutation. Candida spp. were grown overnight in liquid YPD medium which is composed of 10 g yeast extract (DIFCO, USA), 20 g peptone (OXOID), and 20 g dextrose (Penta) dissolved in 1 l distilled water. Then the overnight culture was cryogenically preserved by suspending in 50% glycerol solution (1:1) in small vials and stored at −80° C.
(§5) The inoculum was prepared by picking five colonies from 24-hour-old cultures of Candida spp. The colonies were suspended in 1 ml of sterile saline solution and vortexed for 15 seconds. Optical density of the suspension was adjusted spectrophotometrically by adding sterile saline solution to produce optical density of 0.18 at 600 nm. A working suspension was made by a 1:50 dilution followed by a 1:20 dilution of the stock suspension with RPMI 1640 broth medium which was composed of L-glutamine without NaHCO3 (BioSera, France), and with 0.165 mol.l^−1 MOPS (Duchefa, Netherland)—further as RPMI broth medium.
(§6) The broth microdilution test was performed by using sterile, disposable, multi-well microdilution plates (96-well). The peptides in the concentrations 0.625-160 μmol.l^−1 were pipetted into the wells in 100 μl volumes. Each well of the plate was inoculated with 100 μl of the diluted inoculum suspension. Final yeast density in each well was 5×10^2 up to 2.5×10^3 CFU/ml. The microdilution plates were incubated without shaking at 35° C. and observed for the presence or absence of visible growth for 48 hours.
(§7) Drug-free medium without inoculation served as negative control; the growth positive control contained inoculated drug-free medium. Amphotericin B was used as control drug to ensure quality of Candida strains.
(§8) The minimal inhibition concentrations (MICs) were visually determined 48 hours after inoculation. The MIC values were defined as the lowest concentration in which no observable growth is noticeable.
(§9) All yeast isolates were obtained from the Institute of Physiology of the Academy of Sciences of the Czech Republic. Candida albicans (Olomouc) came from the Faculty of Medicine and Dentistry, Palacý University Olomouc.

Candida glabrata DSY 565 = test: microbe, parasite or virus in culture; type: cell-based; conditions: RPMI broth microdilution, 35° C., 48 hours, visual
Method: as §3, §4, §5, §6, §7, §8, §9

[9] = test system: Candida albicans ATCC MYA-2876; test: microbe, parasite or virus in culture; type: cell-based; conditions: RPMI broth microdilution, 35° C., 48 hours, visual
Method: as §3, §4, §5, §6, §7, §8, §9

[10] = test system: Candida glabrata ATCC 2001; test: microbe, parasite or virus in culture; type: cell-based; conditions: RPMI broth microdilution, 35° C., 48 hours, visual
Method: as §3, §4, §5, §6, §7, §8, §9

[11] = test system: Candida dubliniensis ATCC MYA-646; test: microbe, parasite or virus in culture; type: cell-based; conditions: RPMI broth microdilution, 35° C., 48 hours, visual
Method: as §3, §4, §5, §6, §7, §8, §9

Candida krusei ATCC 6258 = test: microbe, parasite or virus in culture; type: cell-based; conditions: RPMI broth microdilution, 35° C., 48 hours, visual
Method: as §3, §4, §5, §6, §7, §8, §9

[12] = test system: Candida tropicalis ATCC 750; test: microbe, parasite or virus in culture; type: cell-based; conditions: RPMI broth microdilution, 35° C., 48 hours, visual
Method: as §3, §4, §5, §6, §7, §8, §9

Candida albicans Olomouc = conditions: for Antimicrobial activity MIC C. a. Olomouc: Candida albicans Olomouc, YPD medium, 37° C., 20 h (Example 2)
Method: as §1, §2

P. aeruginosa (Liberec) = test: Synergistic effect of peptides with antibiotics, FIC index; type: cell-based, Pseudomonas aeruginosa; conditions: FIC <0.5 synergism, 0.5-2 additive, >2 antagonism, averages of three experiments; for FIC indexes (fractional inhibitory concentration) Combination with RIF against P. aeruginosa: peptide combined with rifampicin; for FIC indexes (fractional inhibitory concentration) Combination with TET against P. aeruginosa: peptide combined with tetracycline
Method: MICs values of various combinations of two fold serial dilutions of peptides and antibiotics were determined using the same methodology as in the case of antimicrobial activity determination (Example 2). To consider the type of the final effect, FIC indexes (fractional inhibitory concentration) were used and calculated as follows:
[formula] where MICPC and MICAC are the MICs of the peptide and antibiotic in combination, respectively, and MICP and MICA are the MICs of the peptide and antibiotic tested alone, respectively. FIC<0.5 were considered as synergy, 0.5≤FIC≤2 as addition effect, and FIC>2 as antagonism.

in vitro = conditions: human
Method: The peptides in the concentrations 2-200 μmol.l^−1 were incubated with the suspension of human red blood cells (5% v/v) for 1 h at 37° C. in a physiological solution at a final volume of 0.2 ml. The samples were then centrifuged for 5 min at 250 g, and the absorbance of the supernatant was determined at 540 nm. Supernatants of red blood cells suspended in physiological solution and in 0.2% (v/v) TRITON X100 in physiological solution served as controls for zero hemolysis (blank) and 100% hemolysis, respectively. Hemolytic activity is expressed as the peptide concentration required for lysis of 50% of human erythrocytes in the assay (LC50).

[13] = synthetically prepared hylanine, in words

Compound	Antimicrobial activity MIC E. f. Motol [1] [µM]	Antimicrobial activity MIC S. a. Liberec [2] [µM]	Antimicrobial activity MIC S. e. Motol [3] [µM]	Antimicrobial activity MIC S. a. 6271 [4] [µM]	Antimicrobial activity MIC P. a. Liberec [5] [µM]	Antimicrobial activity MIC B. s. (Bacillus subtilis) [µM]	Antimicrobial activity MIC S. a. Motol [6] [µM]	Antimicrobial activity MIC P. a. 5482 [7] [µM]	Antimicrobial activity MIC E. c. (Escherichia coli) [µM]	Antifungal activity MIC C. albicans Olomouc [8] [µM]	Antifungal activity MIC C. glabrata DSY 565 (Candida glabrata DSY 565) [µM]	Antifungal activity MIC C. albicans ATCC MYA-2876 [9] [µM]	Antifungal activity MIC C. glabrata ATCC 2001 [10] [µM]	Antifungal activity MIC C. dubliniensis ATCC MYA-646 [11] [µM]	Antifungal activity MIC C. krusei ATCC 6258 (Candida krusei ATCC 6258) [µM]	Antifungal activity MIC C. tropicalis ATCC 750 [12] [µM]	Antimicrobial activity MIC C. a. Olomouc (Candida albicans Olomouc) [µM]	FIC indexes (fractional inhibitory concentration) Combination with RIF against P. aeruginosa (P. aeruginosa (Liberec))	FIC indexes (fractional inhibitory concentration) Combination with TET against P. aeruginosa (P. aeruginosa (Liberec))	HC50 at 1 h (in vitro) [µM]	also measured
CN(C)[C@@H]1C(=O)C(C(N)=O)=C(O)[C@@]2(O)C(=O)C3=C(O)c4c(O)cccc4[C@@](C)(O)[C@H]3C[C@@H]12 [Tetracyklin, Tetracycline, reference compound]	40.0	1.1	>100	0.9	70.4	16.0	2.0	28.7	2.7												Antimicrobial activity MIC M. l. (Micrococcus luteus; Micrococcus luteus, 37° C., 20 h): 0.8 µM
H-GILSSLLKKLKKWIAK-NH2 [XVIII]	25.3	2.5	1.6	8.0	20.7	1.3	4.0	8.0	4.0	8.5	24.0	10.0	8.5	10.0	7.8	1.2	16.0	0.271	0.625	160	
H-GILSSLWKKLKKWIAK-NH2 [XVII]	10.0	1.6	1.6	2.5	24.1	1.3	2.0	12.7	2.5	4.5	11.0	5.5	5.5	5.0	3.3	0.8	12.7	0.292	0.417	57.2	
H-GIMSSLMKKLAAHIAK-NH2 [hylanine, reference compound]																					activity against Staphylococcus aureus ([2]; all strains of pathogenic Staphylococcus aureus, in words): weak; activity against the yeast Candida albicans (Candida albicans Olomouc; [13]): moderate activity; activity against Pseudomonas aeruginosa ([5]; all strains, in words): weak; antimicrobial activity against Micrococcus luteus (Micrococcus luteus; [13]): high antimicrobial activity; antimicrobial activity against Bacillus subtilis (Bacillus subtilis; [13]): high antimicrobial activity
